pIC50: −log10 of the molar value. ≈ marks a conversion by molar mass, not a printed value.
How the values were obtained:
[1] = Lipophilicity, logD of compound by chromatographic analysis; assay type: physicochemical
[2] = Solubility of compound; assay type: physicochemical
[3] = Clearance in rat hepatocytes assessed per million cells; assay type: ADME, cell-based, Hepatocyte
Cannabinoid receptor 1 [4] = biological target: T1, Cannabinoid receptor 1 (Homo sapiens, UniProt P21554); assay: Inverse agonist activity at human CB1 receptor expressed in African green monkey COS7 cells co-expressing G-protein in presence of CP55940 by IP3 assay; assay type: functional, cell membranes, Membrane
Cannabinoid receptor 1 [5] = biological target: T1, Cannabinoid receptor 1; assay: Inverse agonist activity at human CB1 receptor expressed in CHO-K1 cell membrane by GTP-gamma-S assay; assay type: functional, cell membranes
[6] = Subchronic toxicity in DIO mouse assessed as reduction in body weight at 10 mg/kg, po measured after 7 days; assay type: organism-based; design: scale not given: the % may be the effect or the level left; conditions: in vivo, 168 h, time 7 day

T1 sequence (P21554 whole entry): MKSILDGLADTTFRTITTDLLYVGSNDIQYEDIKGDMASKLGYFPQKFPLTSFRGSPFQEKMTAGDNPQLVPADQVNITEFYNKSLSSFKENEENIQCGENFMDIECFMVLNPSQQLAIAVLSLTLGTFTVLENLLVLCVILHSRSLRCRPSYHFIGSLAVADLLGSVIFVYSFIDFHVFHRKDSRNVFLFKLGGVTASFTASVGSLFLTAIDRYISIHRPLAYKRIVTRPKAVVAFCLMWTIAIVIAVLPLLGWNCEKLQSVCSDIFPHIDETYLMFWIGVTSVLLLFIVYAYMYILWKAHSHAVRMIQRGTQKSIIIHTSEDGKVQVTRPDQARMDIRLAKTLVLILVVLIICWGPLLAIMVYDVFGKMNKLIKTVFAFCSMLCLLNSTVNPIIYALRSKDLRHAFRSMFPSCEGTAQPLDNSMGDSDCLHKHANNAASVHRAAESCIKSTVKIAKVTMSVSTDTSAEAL

| Structure (SMILES) | chromatographic logD [1] | solubility [2] [µM] | CLH [3] [µL/min/1e6 cells] | pIC50 (Cannabinoid receptor 1 [4]) | pIC50 (Cannabinoid receptor 1 [5]) | Activity [6] [%] |
| --- | --- | --- | --- | --- | --- | --- |
| N#Cc1cccc(OC2CCN(C(=O)c3nn(-c4ccccc4Cl)c(-c4ccc(Cl)cc4)c3CC(=O)O)CC2)c1 | 3.3 | 107 (≈ 61.6 µg/mL) | 26 | 7.28 | – | – |
| O=C(O)Cc1c(C(=O)N2CCC(Oc3ccc(Cl)cc3F)CC2)nn(-c2ccccc2Cl)c1-c1ccc(Cl)cc1 | 3.4 | 83 (≈ 50 µg/mL) | 28 | 8.10 | – | – |
| O=C(O)Cc1c(C(=O)N2CCC(Oc3cc(F)cc(F)c3)CC2)nn(-c2ccccc2Cl)c1-c1ccc(Cl)cc1 | 3.2 | 171 (≈ 100 µg/mL) | – | 8.10 | – | – |
| O=C(c1nn(-c2ccccc2Cl)c(-c2ccc(Cl)cc2)c1Cc1nn[nH]n1)N1CCC(Oc2ccc(C(F)(F)F)cc2)CC1 | 2.9 | 140 (≈ 89.9 µg/mL) | 12 | 7.64 | 6.92 | – |
| O=C(O)Cc1c(C(=O)N2CCC(Oc3cccc(C(F)(F)F)c3)CC2)nn(-c2ccccc2Cl)c1-c1ccc(Cl)cc1 | 2.7 | 500 (≈ 309 µg/mL) | 35 | 7.62 | – | – |
| N=C(Cc1c(C(=O)NN2CCCCC2)nn(-c2ccccc2Cl)c1-c1ccc(Cl)cc1)NO | 2.9 | – | – | – | – | – |
| N#Cc1ccc(CNC(=O)c2nn(-c3ccccc3Cl)c(-c3ccc(Cl)cc3)c2CC(N)=O)cc1 | 2.9 | 16 (≈ 8.07 µg/mL) | – | – | 9.52 | – |
| C[C@@H](NC(=O)c1nn(-c2ccccc2Cl)c(-c2ccc(Cl)cc2)c1Cc1nn[nH]n1)c1ccc(F)c(Cl)c1 | 2.8 | – | – | 7.49 | 7.20 | 2.4 |
| O=C(c1nn(-c2ccccc2Cl)c(-c2ccc(Cl)cc2)c1Cc1nn[nH]n1)N1CCC(Oc2cccc(F)c2F)CC1 | 2.5 | 396 (≈ 242 µg/mL) | 14 | 7.21 | 6.96 | – |
| O=C(O)Cc1c(C(=O)N2CCC(Oc3ccc(C(F)(F)F)cc3)CC2)nn(-c2ccccc2Cl)c1-c1ccc(Cl)cc1 | 3.1 | 374 (≈ 231 µg/mL) | 17 | 8.15 | – | – |
| O=C(O)Cc1c(C(=O)N2CCC(Oc3ccc(F)cc3)CC2)nn(-c2ccccc2Cl)c1-c1ccc(Cl)cc1 | 3.6 | 118 (≈ 67.1 µg/mL) | – | 8.22 | – | – |
| O=C(c1nn(-c2ccccc2Cl)c(-c2ccc(Cl)cc2)c1Cc1nn[nH]n1)N1CCC(c2ccccc2F)CC1 | 2.5 | 474 (≈ 273 µg/mL) | 33 | 7.64 | 6.89 | – |
| O=C(c1nn(-c2ccccc2Cl)c(-c2ccc(Cl)cc2)c1Cc1nn[nH]n1)N1CCC(Oc2ccc(F)cc2)CC1 | 2.4 | 500 (≈ 296 µg/mL) | 13 | 7.39 | 6.77 | – |
| O=C(O)Cc1c(C(=O)N2CCC(Oc3ccc(F)c(F)c3)CC2)nn(-c2ccccc2Cl)c1-c1ccc(Cl)cc1 | 2.9 | 500 (≈ 293 µg/mL) | – | 7.92 | – | < 2 |
| C[C@@H](NC(=O)c1nn(-c2ccccc2Cl)c(-c2ccc(Cl)cc2)c1Cc1nn[nH]n1)c1ccc(Br)cc1 | 2.4 | – | – | 7.14 | – | – |
| Cc1c(C(=O)NN2CCCCC2)nn(-c2ccc(Cl)cc2Cl)c1-c1ccc(Cl)cc1 [RIMONABANT] | – | – | – | – | – | 14.5 |
| O=C(O)Cc1c(C(=O)N2CCC(Oc3ccc(OC(F)(F)F)cc3)CC2)nn(-c2ccccc2Cl)c1-c1ccc(Cl)cc1 | 3.2 | 176 (≈ 112 µg/mL) | – | 8.00 | – | – |
| O=C(O)Cc1c(C(=O)N2CCC(Oc3cccc(Cl)c3)CC2)nn(-c2ccccc2Cl)c1-c1ccc(Cl)cc1 | 2.8 | – | 32 | 8.00 | 7.29 | – |
| C[C@@H](NC(=O)c1nn(-c2ccccc2Cl)c(-c2ccc(Cl)cc2)c1CC(N)=O)c1ccc(C(F)(F)F)nc1 | 3.3 | 21 (≈ 11.8 µg/mL) | 6 | – | 9.40 | – |
| O=C(O)Cc1c(C(=O)N2CCC(Oc3ccc(Cl)cc3)CC2)nn(-c2ccccc2Cl)c1-c1ccc(Cl)cc1 | 2.7 | – | 7 | 7.96 | 7.52 | – |

Now from value to compound, other results behind:

| chromatographic logD [1] | solubility [2] [µM] | CLH [3] [µL/min/1e6 cells] | pIC50 (Cannabinoid receptor 1 [4]) | pIC50 (Cannabinoid receptor 1 [5]) | Structure (SMILES) | Activity [6] [%] |
| --- | --- | --- | --- | --- | --- | --- |
| 2.8 | 62 (≈ 35.2 µg/mL) | 16 | – | 9.30 | NC(=O)Cc1c(C(=O)N2CCC(O)(c3cccc(F)c3)CC2)nn(-c2ccccc2Cl)c1-c1ccc(Cl)cc1 | – |
| 2.7 | 28 (≈ 16 µg/mL) | 21 | – | 8.89 | CCN1C(=O)OC2(CCN(C(=O)c3nn(-c4ccccc4Cl)c(-c4ccc(Cl)cc4)c3CC(N)=O)CC2)C1=O | – |
| 3.7 | 9 (≈ 5.11 µg/mL) | 48 | – | 9.52 | NC(=O)Cc1c(C(=O)N2CCC(Oc3cccc(F)c3)CC2)nn(-c2ccccc2Cl)c1-c1ccc(Cl)cc1 | – |
| 3.3 | 155 (≈ 88.1 µg/mL) | – | 7.82 | – | O=C(O)Cc1c(C(=O)N2CCC(Oc3cccc(F)c3)CC2)nn(-c2ccccc2Cl)c1-c1ccc(Cl)cc1 | < 2 |
| 2.5 | 73 (≈ 41.9 µg/mL) | – | – | 9.15 | N#Cc1ccc(C2(O)CCN(C(=O)c3nn(-c4ccccc4Cl)c(-c4ccc(Cl)cc4)c3CC(N)=O)CC2)cc1 | – |
| 2.6 | 70 (≈ 40.2 µg/mL) | – | – | 9.40 | N#Cc1cccc(C2(O)CCN(C(=O)c3nn(-c4ccccc4Cl)c(-c4ccc(Cl)cc4)c3CC(N)=O)CC2)c1 | – |
| 3.2 | 4 (≈ 2.33 µg/mL) | 65 | – | 9.22 | CC(C)c1noc(C2(O)CCN(C(=O)c3nn(-c4ccccc4Cl)c(-c4ccc(Cl)cc4)c3CC(N)=O)CC2)n1 | – |
| 3 | 64 (≈ 37.2 µg/mL) | 24 | – | 9.40 | C[C@@H]1C[C@](O)(c2cccc(F)c2)CCN1C(=O)c1nn(-c2ccccc2Cl)c(-c2ccc(Cl)cc2)c1CC(N)=O | – |
| 2.8 | 33 (≈ 19.1 µg/mL) | 17 | – | 8.72 | CC(C)S(=O)(=O)N1CCC(NC(=O)c2nn(-c3ccccc3Cl)c(-c3ccc(Cl)cc3)c2CC(N)=O)CC1 | – |
| 2.5 | 500 (≈ 293 µg/mL) | – | 7.82 | – | O=C(O)Cc1c(C(=O)N2CCC(Oc3cccc(F)c3F)CC2)nn(-c2ccccc2Cl)c1-c1ccc(Cl)cc1 | – |
| 3.5 | 79 (≈ 47 µg/mL) | – | – | 8.66 | C[C@@H]1CC(O)(c2cccc(F)c2)C[C@H](C)N1C(=O)c1nn(-c2ccccc2Cl)c(-c2ccc(Cl)cc2)c1CC(N)=O (stereo partly specified) | – |
| 2.8 | 66 (≈ 37.5 µg/mL) | – | – | 9.30 | NC(=O)Cc1c(C(=O)N2CCC(O)(c3ccccc3F)CC2)nn(-c2ccccc2Cl)c1-c1ccc(Cl)cc1 | – |
| 1.8 | 51 (≈ 26.2 µg/mL) | 4 | – | 7.96 | CC(=O)N1CCC(NC(=O)c2nn(-c3ccccc3Cl)c(-c3ccc(Cl)cc3)c2CC(N)=O)CC1 | – |
| 3.6 | 29 (≈ 17.3 µg/mL) | – | – | 9.15 | C[C@@H]1CC(O)(c2ccccc2F)C[C@H](C)N1C(=O)c1nn(-c2ccccc2Cl)c(-c2ccc(Cl)cc2)c1CC(N)=O (stereo partly specified) | – |
| 2.4 | 61 (≈ 33.6 µg/mL) | 8 | – | 8.02 | CS(=O)(=O)N1CCC(NC(=O)c2nn(-c3ccccc3Cl)c(-c3ccc(Cl)cc3)c2CC(N)=O)CC1 | – |
